# Measurements reported in patent US20250205189A1, “DIETARY BUTYRATE FOR TREATING OR PREVENTING AN ALLERGIC DISORDER” (SOCIETE DES PRODUITS NESTLE S.A., priority 2018, published 2025).
# What was measured:
# [1] = system: GATA-3; settings: cited from earlier work
# [2] = system: OVA-specific IgE, OVA-specific IgG1; assay: Serum ELISA of OVA-specific IgE and IgG1 after oral OVA challenge; type: in vivo, mice; settings: 600 μg butyrate per mL infant formula, compared across the three Allergic groups
# [3] = system: female BALB/c mice; assay: Cumulative clinical score after oral OVA challenge in mice with pre-existing milk (BLG) allergy; type: in vivo; settings: 600 μg butyrate per mL infant formula ad libitum; 12 oral OVA challenges; compared to Allergic group 1; FIG. 3
# From the text: An allergy to milk was induced in female BALB/c mice aged eight weeks by sensitization via epicutaneous application of the milk protein β-lactoglobulin (BLG) (“Allergic group”). At this stage all three “Allergic groups” ([…], […] and Allergic group 3) were subjected to the same sensitization via epicutaneous application of the milk protein β-lactoglobulin (BLG) treatment. The non-allergic negative control group received phosphate buffered saline (PBS) only (“Control group”). Three patches were applied in total, each separated by a week without patch in between. Six days following the final skin patch, mice were orally challenged with BLG following a conventional procedure known to those skilled in the art. Serum was processed for ELISA and BLG-specific Immunoglobulin E (IgE) and BLG-specific Immunoglobulin G1 (IgG1) were determined (FIGS. 1 and 2 respectively).
# Following the induction of milk allergy, “Control group” and “Allergic group 1” received infant formula for nutritional management of cow's milk allergy (the extensively hydrolyzed infant formula available commercially under the Trademark Althéra® was used in this example) reconstituted in the drinking water for a three-week period. […]
# [4] = system: mast cell protease-1 (MCPT-1); assay: Serum ELISA of mast cell protease-1 after oral OVA challenge; type: in vivo, mice; settings: 600 μg butyrate per mL infant formula, FIG. 6
smiles,measurement,setting,value
CCCC(=O)[O-].[Na+] [sodium butyrate],GATA-3 or FoxP3 expression,"[1]; 0.1 mM, CD4+ T cells under Th2 polarizing conditions (Furusawa 2013)",insufficient to influence GATA-3 or FoxP3 expression
same,Gata3 expression,"[1]; 1 mM in vitro, Th2 polarized CD4+ T cells (Kespohl 2017)",sufficient to ameliorate Gata3 expression
same,OVA-specific IgE level,[2]; FIG. 4,similar
same,OVA-specific IgG1 level,[2]; FIG. 5,similar
same,Allergic symptoms (cumulative clinical score),[3],reduction of allergic symptoms
same,Mast cell protease-1 (MCPT-1),[4],reduction in mast cell protease-1
